Some test systems named below: SN12C renal; HCT-15 colon; IGROV1 ovarian; SNB-75 CNS; MCF7 breast; A549 NSCLC; BT-549 breast; HT29 colon; SF-268 CNS; SR leukemia.
Holding throughout (assay): NCI tumour cell line growth inhibition, 48 h

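Compound exposure: 48 hours, 5 concentrations, 96-well plates. GI50 is the concentration that inhibits growth by half. TGI: total growth inhibition.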

In the case of `C[C@@H]1[C@H]2[C@H](C=C3[C@@H]4CC[C@H]5Cc6nc7c(nc6C[C@]5(C)[C@H]4C[C@@H](O)[C@@]32C)C[C@@H]2CC[C@H]3C4=C[C@@H]5O[C@@]6(CC[C@](C)(CO)O6)[C@@H](C)[C@@]5(O)[C@@]4(C)[C@H](O)C[C@@H]3[C@@]2(C)C7)O[C@]12CCC(C)(C)O2`, the GI50 with SN12C renal is 11.6 µM; with HCT-15 colon, 0.43 µM; in the experiment with IGROV1 ovarian, 2.16 µM; in the experiment with SNB-75 CNS, 0.14 µM; in the experiment with MCF7 breast, 0.49 µM; with A549 NSCLC, 0.809 µM. The GI50 in the experiment with BT-549 breast was 0.338 µM; with HT29 colon, 0.34 µM; with SF-268 CNS it was 0.756 µM; in the experiment with SR leukemia, 0.322 µM. Further, the TGI with SN12C renal was more than 70.3 µM; in the experiment with HCT-15 colon it was 8.14 µM; in the experiment on IGROV1 ovarian, 62.8 µM; with SNB-75 CNS, 9.54 µM; in the experiment on MCF7 breast it was 15.3 µM; in the experiment with A549 NSCLC it was 14.6 µM. In addition, the TGI in the experiment with BT-549 breast was 15 µM; in the experiment on HT29 colon it was 2.47 µM; in the experiment on SF-268 CNS it was 31.6 µM; in the experiment with SR leukemia, 2.9 µM.

The record behind these values is PubChem BioAssay (NCI).
